Reference: US12077503B2, “Substituted cyclic amides and their use as herbicides” (FMC CORPORATION, priority 2015, dated 2024)

How the values were obtained:
Format in all cases: in vivo
[1] = tested on: wheat (Triticum aestivum); test: Test A postemergence; conditions: Triticum aestivum, post-emergence, 240 h, 125 g ai/ha, postemergence, visual injury vs untreated controls after approx. 10 d; 0 = no effect, 100 = complete control; read-out: Wheat plant response rating (0 to 100 scale)
Summary of the method: (§1)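 Seeded soil received test chemicals as a preemergence directed spray, and seedlings at one to two leaves, 2–10 cm tall, received them postemergence, in a non-phytotoxic, surfactant-containing solvent mixture. Pots were held in a greenhouse for approximately 10 d, then rated for injury from 0, no effect, to 100, complete control.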

[2] = tested on: pigweed (Amaranthus retroflexus); test: Test A postemergence; conditions: Amaranthus retroflexus, post-emergence, 240 h, 125 g ai/ha, postemergence, visual injury vs untreated controls after approx. 10 d; 0 = no effect, 100 = complete control; read-out: Pigweed plant response rating (0 to 100 scale)
Summary of the method: as §1

[3] = tested on: barnyardgrass (Echinochloa crus-galli); test: Test A postemergence; conditions: Echinochloa crus-galli, post-emergence, 240 h
Summary of the method: as §1

[4] = tested on: ryegrass, Italian (Italian ryegrass, Lolium multiflorum); test: Test A postemergence; conditions: Lolium multiflorum, post-emergence, 240 h, 125 g ai/ha, postemergence, visual injury vs untreated controls after approx. 10 d; 0 = no effect, 100 = complete control; read-out: Ryegrass, Italian plant response rating (0 to 100 scale)
Summary of the method: as §1

[5] = tested on: Galium (catchweed bedstraw, Galium aparine); test: Test A postemergence; conditions: Galium, post-emergence, 240 h
Summary of the method: as §1

[6] = tested on: corn (Zea mays); test: Test A postemergence; conditions: Zea mays, post-emergence, 240 h
Summary of the method: as §1

[7] = tested on: blackgrass (Alopecurus myosuroides); test: Test A postemergence; conditions: Alopecurus myosuroides, post-emergence, 240 h
Summary of the method: as §1

[8] = tested on: ragweed (common ragweed, Ambrosia elatior); test: Test A postemergence; conditions: Ambrosia artemisiifolia, post-emergence, 240 h, 125 g ai/ha, postemergence, visual injury vs untreated controls after approx. 10 d; 0 = no effect, 100 = complete control; read-out: Ragweed plant response rating (0 to 100 scale)
Summary of the method: as §1

[9] = tested on: giant foxtail (Setaria faberii); test: Test A postemergence; conditions: Setaria faberi, post-emergence, 240 h
Summary of the method: as §1

[10] = tested on: Kochia (Kochia scoparia); test: Test A postemergence; conditions: Bassia scoparia, post-emergence, 240 h
Summary of the method: as §1

[11] = tested on: pigweed (Amaranthus retroflexus); test: Test A preemergence; conditions: Amaranthus retroflexus, pre-emergence, 240 h, 0 to 100 scale where 0 is no effect and 100 is complete control, read-out: Pigweed plant response rating
[12] = tested on: barnyardgrass (Echinochloa crus-galli); test: Test A preemergence; conditions: Echinochloa crus-galli, pre-emergence, 240 h, 0 to 100 scale where 0 is no effect and 100 is complete control, read-out: Barnyardgrass plant response rating
Summary of the method: as §1

[13] = tested on: ryegrass, Italian (Italian ryegrass, Lolium multiflorum); test: Test A preemergence; conditions: Lolium multiflorum, pre-emergence, 240 h, 0 to 100 scale where 0 is no effect and 100 is complete control, read-out: Ryegrass, Italian plant response rating
Summary of the method: as §1

[14] = tested on: ragweed (common ragweed, Ambrosia elatior); test: Test A preemergence; conditions: Ambrosia artemisiifolia, pre-emergence, 240 h, 0 to 100 scale where 0 is no effect and 100 is complete control, read-out: Ragweed plant response rating
Summary of the method: as §1

[15] = tested on: giant foxtail (Setaria faberii); test: Test A preemergence; conditions: Setaria faberi, pre-emergence, 240 h, 0 to 100 scale where 0 is no effect and 100 is complete control, read-out: Foxtail, Giant plant response rating
Summary of the method: as §1

[16] = tested on: Kochia (Kochia scoparia); test: Test A preemergence; conditions: Bassia scoparia, pre-emergence, 240 h, 0 to 100 scale where 0 is no effect and 100 is complete control, read-out: Kochia plant response rating
Summary of the method: as §1

[17] = tested on: sedge, umbrella (small-flower umbrella sedge, Cyperus difformis); test: Test B flooded paddy test; conditions: Cyperus difformis, 250 g ai/ha, Flood; 0 to 100 scale where 0 is no effect and 100 is complete control; read-out: Sedge, Umbrella plant response rating
Summary of the method: (§2)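 2-leaf plants; pots flooded 3 cm over soil; cpd added to paddy water; depth held; greenhouse 13–15 d; visual rating vs controls, 0 = no effect, 100 = complete control.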

[18] = tested on: barnyardgrass (Echinochloa crus-galli); test: Test B flooded paddy test; conditions: Echinochloa crus-galli, 250 g ai/ha, Flood; 0 to 100 scale where 0 is no effect and 100 is complete control; read-out: Barnyardgrass plant response rating
Summary of the method: as §2

[19] = tested on: ducksalad (Heteranthera limosa); test: Test B flooded paddy test; conditions: Heteranthera limosa, 250 g ai/ha, Flood; 0 to 100 scale where 0 is no effect and 100 is complete control; read-out: Ducksalad plant response rating
Summary of the method: as §2

[20] = tested on: rice (Oryra sativa); test: Test B flooded paddy test; conditions: Oryza sativa, 250 g ai/ha, Flood; 0 to 100 scale where 0 is no effect and 100 is complete control; read-out: Rice plant response rating
Summary of the method: as §2

[21] = 125 g ai/ha, preemergence, approx. 10 d

Question: Which results are given for `CN1C[C@H](c2ccc(C(F)F)cc2)[C@@H](C(=O)Nc2ccccc2S(C)(=O)=O)C1=O` [Compound 1175]?
Answer: plant injury at 125 g/ha [1]: 40%; pest or weed control at 125 g/ha [2]: 20%; pest or weed control at 125 g/ha ([3]; 125 g ai/ha, postemergence, visual injury vs untreated controls after approx. 10 d, 0 = no effect, 100 = complete control, read-out: Barnyardgrass plant response rating (0 to 100 scale)): 90%; pest or weed control at 31 g/ha ([3]; Postemergence, 31 g ai/ha, visual injury after approx. 10 d, 0 to 100 scale, 0 no effect, 100 complete control, read-out: Plant response rating, Barnyardgrass): 50%; pest or weed control at 125 g/ha [4]: 50%; pest or weed control at 125 g/ha ([5]; 125 g ai/ha, postemergence, visual injury vs untreated controls after approx. 10 d, 0 = no effect, 100 = complete control, read-out: Galium plant response rating (0 to 100 scale)): 40%; pest or weed control at 31 g/ha ([5]; Postemergence, 31 g ai/ha, visual injury after approx. 10 d, 0 to 100 scale, 0 no effect, 100 complete control, read-out: Plant response rating, Galium): 20%; plant injury at 125 g/ha ([6]; 125 g ai/ha, postemergence, visual injury vs untreated controls after approx. 10 d, 0 = no effect, 100 = complete control, read-out: Corn plant response rating (0 to 100 scale)): 30%; Corn plant response rating (crop injury, 0 = no effect, 100 = complete kill) at 31 g/ha ([6]; Postemergence, 31 g ai/ha, visual injury after approx. 10 d, 0 to 100 scale, 0 no effect, 100 complete control): 0%; pest or weed control at 125 g/ha ([7]; 125 g ai/ha, postemergence, visual injury vs untreated controls after approx. 10 d, 0 = no effect, 100 = complete control, read-out: Blackgrass plant response rating (0 to 100 scale)): 50%; pest or weed control at 31 g/ha ([7]; Postemergence, 31 g ai/ha, visual injury after approx. 10 d, 0 to 100 scale, 0 no effect, 100 complete control, read-out: Plant response rating, Blackgrass): 0%; pest or weed control at 125 g/ha [8]: 30%; pest or weed control at 125 g/ha ([9]; 125 g ai/ha, postemergence, visual injury vs untreated controls after approx. 10 d, 0 = no effect, 100 = complete control, read-out: Foxtail, Giant plant response rating (0 to 100 scale)): 80%; pest or weed control at 31 g/ha ([9]; Postemergence, 31 g ai/ha, visual injury after approx. 10 d, 0 to 100 scale, 0 no effect, 100 complete control, read-out: Plant response rating, Foxtail, Giant): 50%; pest or weed control at 125 g/ha ([10]; 125 g ai/ha, postemergence, visual injury vs untreated controls after approx. 10 d, 0 = no effect, 100 = complete control, read-out: Kochia plant response rating (0 to 100 scale)): 0%; pest or weed control at 31 g/ha ([10]; Postemergence, 31 g ai/ha, visual injury after approx. 10 d, 0 to 100 scale, 0 no effect, 100 complete control, read-out: Plant response rating, Kochia): 0%; pest or weed control at 31 g/ha ([11]; 31 g ai/ha, Preemergence): 0%; pest or weed control at 125 g/ha [11, 21]: 40%; pest or weed control at 31 g/ha ([12]; 31 g ai/ha, Preemergence): 50%; pest or weed control at 125 g/ha [12, 21]: 90%; pest or weed control at 31 g/ha ([13]; 31 g ai/ha, Preemergence): 0%; pest or weed control at 125 g/ha [13, 21]: 20%; pest or weed control at 31 g/ha ([14]; 31 g ai/ha, Preemergence): 0%; pest or weed control at 125 g/ha [14, 21]: 20%; pest or weed control at 31 g/ha ([15]; 31 g ai/ha, Preemergence): 70%; pest or weed control at 125 g/ha [15, 21]: 90%; pest or weed control at 31 g/ha ([16]; 31 g ai/ha, Preemergence): 20%; pest or weed control at 125 g/ha [16, 21]: 50%; pest or weed control at 250 g/ha [17]: 0%; pest or weed control at 250 g/ha [18]: 65%; pest or weed control at 250 g/ha [19]: 90%; pest or weed control at 250 g/ha [20]: 10%
